What all share (format): binding, human
The target of assay [1] is TRAV12-1 TCR NR1C. The note with it: pH 7.5.
Assay [2] addresses TRAV12-2 TCR NR2F. To be noted: pH 7.5.
The target of assay [3] is TRAV12-1 TCR NR1A. The note with it: pH 7.5.
Assay [4] concerns TRAV12^+ TCRs.
The target of assay [5] is TRAV12-1 TCR NR1D. To be noted: pH 7.5.

Turning to TLDPRSFLL [PAR1], the “KD, NR1C” value in assay [1] is “N.B”. The “KD, NR2F” value in assay [2] is listed as “N.B”.

For the sequence YLQPSTFLL [S^269–277R273S], in assay [3], the “KD, NR1A” value is listed as “N.B”. The “TCR binding to HLA-A2 presenting the changed epitope” value in assay [4] was “completely abrogated TCR binding”. Besides, the “KD, NR1C” value in assay [1] is reported as “N.B”. In addition, the “KD, NR2F” value in assay [2] is on record as “N.B”. The “KD, NR1D” value in assay [5] is given as “N.B”.
